By IC50 is commonly meant the concentration at which inhibition is half-maximal. Lower therefore signals greater potency in that assay.

The experiment addresses T1, Full-length, GST-tagged, human CaMKIIδ (Homo sapiens, UniProt Q13557).
T1 construct: Full-Length, Glutathione-S-Transferase(GST)-Tagged, Human CaMKIIδ was purchased from Carna Biosciences; purchased Carna Biosciences 02-111
The experiment is described as follows: CaMKIIδ binding assay (TR-FRET with BODIPY-labeled probe ligand). On the procedure:
In vitro CaMKIIδ inhibitory activity was evaluated by a binding assay.
Full-Length, Glutathione-S-Transferase(GST)-Tagged, Human CaMKIIδ was purchased from Carna Biosciences (product #02-111, Kobe, Japan). Full-length bovine calmodulin was purchased from Wako Pure Chemical Industries (Osaka, Japan). Terbium-labeled anti-GST antibody (Tb-anti-GST Ab) was purchased from Life Technologies (Carlsbad, Calif., USA). Boron-dipyrromethene (BODIPY)-labeled probe ligand was synthesized as described below.
Time-Resolved Fluorescence Resonance Energy Transfer (TR-FRET) Assay
All assays were conducted using 384-well, white, flat-bottomed plates (product #784075, Greiner Bio-One, Frickenhausen, Germany) in kinase assay buffer, which consists of 50 mM HEPES pH 7.6, 10 mM MgCl2, 1 mM EGTA, 0.01% Brig-35, 0.1 mM DTT). The fluorescent probe ligand was added at a final concentration of 300 nM to solutions containing 0.21 nM Tb-anti-GST Ab, 1 mM CaCl2), 10 μg/mL calmodulin, and 0.5 nM GST-tagged CaMKIIδ. After shaded incubation of the protein-probe mixture on ice for 30 min, the premix was dispensed in the assay plate including test inhibitors with 4 fold dilution series of eight concentrations. After 1 hr incubation at room temperature, TR-FRET signals were measured in duplicate using an EnVision microplate reader (Perkin Elmer, Waltham, Mass., USA). The solution in each well was excited with a laser (λ=340 nm) reflected by a dichroic mirror (D400/D505 (Perkin Elmer) through an excitation filter (UV (TRF) 340, (Perkin Elmer)), and fluorescence from Tb and BODIPY were detected through two emission filters (CFP 495 (Perkin Elmer) for Tb, Emission 520 (Perkin Elmer) for BODIPY).
The percentage of inhibition of test compounds was calculated according to equation (1) Inhibition (%)=100×([…]−T)/(μH−μL) (1)
Where T is the value of the wells containing test compounds and μH and μL are the mean values of the 0% and 100% inhibition control wells, respectively. The values of the 0 and 100% controls were the signals obtained in the absence and presence of 3 μM its parent compound, respectively. The half maximal inhibitory concentration (IC50) of test compounds was calculated by fitting the data with the logistic equation using XLfit (IDBS, Guildford, UK). The IC50 was classified according to the following activity ranks.
A general note: TR-FRET usually uses a lanthanide donor and a delayed reading to cut background.

Where [1] appears, read: Table 2, activity class for CaMKIIδ.
The mark [2] stands for this setting: CaMKIIδ binding assay, results of Table 2.
[3] abbreviates: CaMKIIδ binding assay, activity class per Table 2.
The mark [4] stands for this setting: Table 2, CaMKIIδ binding assay, activity given as class A/B/C.

T1 sequence (Q13557 1-478 isoform Q13557-12): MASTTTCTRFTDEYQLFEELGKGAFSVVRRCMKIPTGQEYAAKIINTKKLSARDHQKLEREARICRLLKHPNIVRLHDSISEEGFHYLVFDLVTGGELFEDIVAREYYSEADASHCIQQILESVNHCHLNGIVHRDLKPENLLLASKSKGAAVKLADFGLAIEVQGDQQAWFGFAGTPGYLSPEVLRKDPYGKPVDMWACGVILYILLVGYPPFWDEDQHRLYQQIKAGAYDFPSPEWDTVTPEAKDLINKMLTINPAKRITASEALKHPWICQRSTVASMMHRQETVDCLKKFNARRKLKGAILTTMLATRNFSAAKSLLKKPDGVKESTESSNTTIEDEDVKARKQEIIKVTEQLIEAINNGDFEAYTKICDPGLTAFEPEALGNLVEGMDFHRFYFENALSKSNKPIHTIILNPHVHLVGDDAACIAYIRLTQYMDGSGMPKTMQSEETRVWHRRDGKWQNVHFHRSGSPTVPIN

Compound `C[C@@H](Cn1cnnn1)Oc1cc(-c2cnc(Nc3cn(C4CCC(C(=O)O)CC4)nc3C(F)(F)F)nc2)ccc1Cl` (stereo partly drawn) [Example 604, (S)-4-(4-((5-(3-((1-(1H-tetrazol-1-yl)propan-2-yl)oxy)-4-chlorophenyl)pyrimidin-2-yl)amino)-3-(trifluoromethyl)-1H-pyrazol-1-yl)cyclohexane-1-carboxylic acid] came in with an IC50 under setting [1] of 10 to 100 nM.
`COc1cc(C2CCCN(C3COC3)C2)ccc1Nc1ncc(-c2ccc(C#N)c(O[C@@H](C)Cn3cnnn3)c2)cn1` (stereo partly drawn) [Example 493, 2-(((S)-1-(1H-tetrazol-1-yl)propan-2-yl)oxy)-4-(2-((2-methoxy-4-(1-(oxetan-3-yl)piperidin-3-yl)phenyl)amino)pyrimidin-5-yl)benzonitrile] returned a half-inhibitory concentration (IC50) under setting [2] of less than 10 nM.
For the compound `C[C@@H](Cn1cnnn1)Oc1cc(-c2cnc(Nc3cn(C4CCN(C5CCOCC5)CC4)nc3OC(F)F)nc2)ccc1Cl` [Example 664, (S)-5-(3-((1-(1H-tetrazol-1-yl)propan-2-yl)oxy)-4-chlorophenyl)-N-(3-(difluoromethoxy)-1-(1-(tetrahydro-2H-pyran-4-yl)piperidin-4-yl)-1H-pyrazol-4-yl)pyrimidin-2-amine], the IC50 under setting [1] was less than 10 nM.
On the same count and under the same terms, as for `C[C@@H](Cn1cnnn1)Oc1cc(-c2cnc(Nc3cn(C4CCCNC4)nc3C(F)(F)F)nc2)ccc1Cl` (stereo partly drawn) [Example 600, 5-(3-(((S)-1-(1H-tetrazol-1-yl)propan-2-yl)oxy)-4-chlorophenyl)-N-(1-(piperidin-3-yl)-3-(trifluoromethyl)-1H-pyrazol-4-yl)pyrimidin-2-amine], the figure is less than 10 nM.
`COc1cc2c(cc1Nc1ncc(-c3ccc(Cl)c(O[C@@H](C)Cn4cnnn4)c3)cn1)CN(CC(C)=O)CC2` [Example 510, (S)-1-(7-((5-(3-((1-(1H-tetrazol-1-yl)propan-2-yl)oxy)-4-chlorophenyl)pyrimidin-2-yl)amino)-6-methoxy-3,4-dihydroisoquinolin-2(1H)-yl)propan-2-one] returned an IC50 under setting [2] of less than 10 nM.
Compound `CC(C)c1nn(C2CC3(C2)CN(C2(C)CCOC2)C3)cc1Nc1ncc(-c2ccc(Cl)c(O[C@@H](C)Cn3cnnn3)c2)cn1` (stereo partly drawn) [Example 956, 5-(3-(((S)-1-(1H-tetrazol-1-yl)propan-2-yl)oxy)-4-chlorophenyl)-N-(3-isopropyl-1-(2-(3-methyltetrahydrofuran-3-yl)-2-azaspiro[3.3]heptan-6-yl)-1H-pyrazol-4-yl)pyrimidin-2-amine] showed a 50% inhibitory concentration (IC50) under setting [3] of less than 10 nM.
Under setting [1], `C[C@@H](Cn1cnnn1)Oc1cc(-c2cnc(Nc3cc(N4CC(N5CCOCC5)C4)ncc3OC(F)(F)F)nc2)ccc1Cl` [Example 627, (S)-5-(3-((1-(1H-tetrazol-1-yl)propan-2-yl)oxy)-4-chlorophenyl)-N-(2-(3-morpholinoazetidin-1-yl)-5-(trifluoromethoxy)pyridin-4-yl)pyrimidin-2-amine] returned a half-maximal inhibitory concentration (IC50) of 10 to 100 nM.
The same measure, in the same setting: as for `C[C@@H](Cn1cnnn1)Oc1cc(-c2cnc(Nc3cn(CC(=O)N4CCOCC4)nc3C(F)(F)F)nc2)ccc1Cl` [Example 607, (S)-2-(4-((5-(3-((1-(1H-tetrazol-1-yl)propan-2-yl)oxy)-4-chlorophenyl)pyrimidin-2-yl)amino)-3-(trifluoromethyl)-1H-pyrazol-1-yl)-1-morpholinoethan-1-one], the figure is less than 10 nM.
On to `COc1cc(C)c(C(=O)N2CCOCC2)cc1Nc1ncc(-c2ccc(C#N)c(O[C@@H](C)Cn3cnnn3)c2)cn1` [Example 440, (S)-2-((1-(1H-tetrazol-1-yl)propan-2-yl)oxy)-4-(2-((2-methoxy-4-methyl-5-(morpholine-4-carbonyl)phenyl)amino)pyrimidin-5-yl)benzonitrile], for which the half-inhibitory concentration (IC50) under setting [2] was less than 10 nM.
As for `CCn1cc(Nc2ncc(-c3ccc(Cl)c(O[C@@H](C)Cn4cnnn4)c3)cn2)c(C(=O)N2CCOCC2)n1` [Example 866, (S)-(4-((5-(3-((1-(1H-tetrazol-1-yl)propan-2-yl)oxy)-4-chlorophenyl)pyrimidin-2-yl)amino)-1-ethyl-1H-pyrazol-3-yl)(morpholino)methanone], the IC50 under setting [4] fell in the range of 10 to 100 nM.
As for `C[C@@H](Cn1cnnn1)Oc1cc(-c2cnc(Nc3cn(CC(F)F)nc3OCC(F)(F)F)nc2)ccc1Cl` [Example 760, (S)-5-(3-((1-(1H-tetrazol-1-yl)propan-2-yl)oxy)-4-chlorophenyl)-N-(1-(2,2-difluoroethyl)-3-(2,2,2-trifluoroethoxy)-1H-pyrazol-4-yl)pyrimidin-2-amine], the IC50 under setting [4] is less than 10 nM.
`COCCn1nc(C)cc1Nc1ncc(-c2ccc(Cl)c(O[C@@H](C)Cn3cnnn3)c2)cn1` [Example 655, (S)-5-(3-((1-(1H-tetrazol-1-yl)propan-2-yl)oxy)-4-chlorophenyl)-N-(1-(2-methoxyethyl)-3-methyl-1H-pyrazol-5-yl)pyrimidin-2-amine] showed an IC50 under setting [1] of no less than 100 nM.
Under setting [3], `C[C@@H](Cn1cnnn1)Oc1cc(-c2cnc(Nc3cn(C4CC5(C4)CN(C4COCOC4)C5)nc3OCC(F)(F)F)nc2)ccc1Cl` [Example 965, (S)—N-(1-(2-(1,3-dioxan-5-yl)-2-azaspiro[3.3]heptan-6-yl)-3-(2,2,2-trifluoroethoxy)-1H-pyrazol-4-yl)-5-(3-((1-(1H-tetrazol-1-yl)propan-2-yl)oxy)-4-chlorophenyl)pyrimidin-2-amine] displayed a half-maximal inhibitory concentration (IC50) of less than 10 nM.
Regarding `CCc1cc2c(cc1Nc1ncc(-c3ccc(Cl)c(O[C@@H](C)Cn4cnnn4)c3)cn1)CN(C1COC1)CC2` [Example 515, (S)-N-(5-(3-((1-(1H-tetrazol-1-yl)propan-2-yl)oxy)-4-chlorophenyl)pyrimidin-2-yl)-6-ethyl-2-(oxetan-3-yl)-1,2,3,4-tetrahydroisoquinolin-7-amine], the IC50 under setting [2] fell in the range of 10 to 100 nM.
The compound `C[C@@H](COC(F)F)Oc1cc(-c2cnc(Nc3cn(C4CC5(C4)CN(C4CCOCC4)C5)nc3OCC(F)(F)F)nc2)ccc1C#N` [Example 881, (S)-2-((1-(difluoromethoxy)propan-2-yl)oxy)-4-(2-((1-(2-(tetrahydro-2H-pyran-4-yl)-2-azaspiro[3.3]heptan-6-yl)-3-(2,2,2-trifluoroethoxy)-1H-pyrazol-4-yl)amino)pyrimidin-5-yl)benzonitrile] yielded an IC50 under setting [3] of less than 10 nM.
Under setting [1], `C[C@@H](Cn1cnnn1)Oc1cc(-c2cnc(Nc3cn(Cc4ccccn4)nc3C(F)(F)F)nc2)ccc1Cl` [Example 707, (S)-5-(3-((1-(1H-tetrazol-1-yl)propan-2-yl)oxy)-4-chlorophenyl)-N-(1-(pyridin-2-ylmethyl)-3-(trifluoromethyl)-1H-pyrazol-4-yl)pyrimidin-2-amine] yielded a half-inhibitory concentration (IC50) of 10 to 100 nM.
For `C[C@@H](Cn1cnnn1)Oc1cc(-c2cnc(Nc3cn(CC4(O)CCC4)nc3OCC(F)(F)F)nc2)ccc1Cl` [Example 853, (S)-1-((4-((5-(3-((1-(1H-tetrazol-1-yl)propan-2-yl)oxy)-4-chlorophenyl)pyrimidin-2-yl)amino)-3-(2,2,2-trifluoroethoxy)-1H-pyrazol-1-yl)methyl)cyclobutan-1-ol], the half-maximal inhibitory concentration (IC50) under setting [4] is less than 10 nM.
The compound `C[C@@H](Cn1cnnn1)Oc1cc(-c2cnc(Nc3cc(N4CCC(N5CCOCC5)CC4)ncc3OC(F)(F)F)nc2)ccc1C#N` [Example 543, (S)-2-((1-(1H-tetrazol-1-yl)propan-2-yl)oxy)-4-(2-((2-(4-morpholinopiperidin-1-yl)-5-(trifluoromethoxy)pyridin-4-yl)amino)pyrimidin-5-yl)benzonitrile] displayed an IC50 under setting [2] of less than 10 nM.
Under setting [3], `C[C@@H](Cn1cnnn1)Oc1cc(-c2cnc(Nc3cn([C@H]4C[C@H](N)C4)nc3OCC(F)(F)F)nc2)ccc1Cl` [Example 941, 5-(3-(((S)-1-(1H-tetrazol-1-yl)propan-2-yl)oxy)-4-chlorophenyl)-N-(1-(trans-3-aminocyclobutyl)-3-(2,2,2-trifluoroethoxy)-1H-pyrazol-4-yl)pyrimidin-2-amine] registered an IC50 of less than 10 nM.
In turn, `C[C@@H](Cn1cnnn1)Oc1cc(-c2cnc(Nc3cn(Cc4ccncc4)nc3C(F)(F)F)nc2)ccc1Cl` [Example 709, (S)-5-(3-((1-(1H-tetrazol-1-yl)propan-2-yl)oxy)-4-chlorophenyl)-N-(1-(pyridin-4-ylmethyl)-3-(trifluoromethyl)-1H-pyrazol-4-yl)pyrimidin-2-amine] registered a half-inhibitory concentration (IC50) under setting [1] of 10 to 100 nM.
Under setting [4], `CCn1ncc(Nc2ncc(-c3ccc(Cl)c(O[C@@H](C)Cn4cnnn4)c3)cn2)c1C(=O)N1CCOCC1` [Example 865, (S)-(4-((5-(3-((1-(1H-tetrazol-1-yl)propan-2-yl)oxy)-4-chlorophenyl)pyrimidin-2-yl)amino)-1-ethyl-1H-pyrazol-5-yl)(morpholino)methanone] displayed a 50% inhibitory concentration (IC50) of no less than 100 nM.

Source of the values: patent publication US10543212B2, “Substituted amines for treating cardiac diseases” (Cardurion Pharmaceuticals, LLC, priority 2017, dated 2020).
